Patent publication US7601847B2, “Preparation and purification of 4-(indazol-3-yl)phenols” (Wyeth, priority 2004, dated 2009)
In brackets after ≈: the same amount, converted by molar mass.

Assay: relative solubility in a mixture of methanol and water
Format: physicochemical
Details: mixture of methanol and water (57:43 v/v); for solubility: methanol/water mixture (57:43 v/v), aqueous with cosolvent or surfactant or cyclodextrin

solubility [mg/mL]	difference in solubility in favor of the impurity (VI vs compound I) [×]	Compound
140 (≈ 419 mM)	20	C=CCn1nc2c(C(F)(F)F)cccc2c1-c1ccc(O)cc1O [VI]
6 (≈ 17.9 mM)		C=CCn1nc(-c2ccc(O)cc2O)c2cccc(C(F)(F)F)c21 [I, 4-[1-allyl-7-(trifluoromethyl)-1H-indazol-3-yl]benzene-1,3-diol]
